Experimental data as given in patent US11458132B2, “Quinolin-2(1H)-one inhibitors of Late SV40 Factor” (TRUSTEES OF BOSTON UNIVERSITY, priority 2020, dated 2022).

Assays:
RPE cells = test: Wound healing assay; type: cell-based
Experimental: Wound healing analysis: Confluent RPE cells were synchronized by incubating with 2 mM thymidine for 18-20 hours. Two intersecting lines were drawn into the confluent cells using a pipette tip. A phase-contrast image was acquired of the intersection point (“0 h” time-point) on an Olympus IX50 inverted microscope, immediately followed by treatment with the respective inhibitor and 2 mM thymidine. Phase-contrast images of the intersection point were acquired every 2 hours for 12 hours, continuing incubation at 37° C. in 5% CO2 in-between time points. Using ImageJ, the distances between each pair of neighboring vertices of the intersection point at each time-point were measured and normalized to the “0 h” sample.
RPE-hTERT Flp-In cells, propagated in DME M:F12 media with 10% fetal bovine serum at 37° C. in a 5% CO2 humidified incubator, were grown to confluence in 6-well tissue culture plates. One day prior to performing the wound healing assay, the medium was exchanged to also include 2 mM thymidine, so that the cells would stop dividing.
A cross-shaped wound was scratched into each well, and the cells imaged by phase contrast microscopy using at 4× magnification using a Olympus IX50 Inverted microscope. Then the cell media was exchanged to include vehicle (DMSO at 0.01%), 50 nM FQI2-34, 100 nM FQI2-34, or 200 nM FQI2-34; 2 mM thymidine was maintained throughout, as well. Cells were imaged again at 2 h, 4h, 6h, and 8h, in order to measure the migration of the cells into the wound.
Each of the 4 lines across the vertices of the “X” were individually measured from each set of images using ImageJ. Relative distances of cell migration into the wound were obtained by subtracting each of the lengths for 2-8 hour timepoints from the length at the 0 hour timepoint for that line and that sample. The averages of the four changes in lengths per sample were then plotted over time for each concentration of FQI2-34, from […], using Prism software. Triplicate technical replicates were performed for each concentration.

HT-29 cells = test: Allogeneic HT-29 xenograft model in athymic mice; type: in vivo
Source text: Syngeneic and allogeneic xenograft models: We used 8-12 weeks-old athymic female mice for the allogeneic xenograft model and C57BL/6 mice for a syngeneic xenograft model, as described previously^26,27. All the mice were obtained from The Jackson Laboratory and housed at Boston University Medical Center based on the approval from the Institutional Animal Care and Use Committee. Each mouse was implanted subcutaneously on the dorsal surface and was monitored for tumor growth as measured with a VWR Digital Caliper. The tumor volume was calculated twice a week using the equation: length×width×height.
The mice were randomly separated into two groups once tumor volumes reached 100 mm^3. The FQI2-34 was suspended in a mixture of ethanol and DMSO. The mixture was agitated until the compound had completely dissolved. This solution was further diluted in 20% PEG 400 and water to give a final concentration of 2 mg/ml. FQI2-34 or vehicle was injected intraperitoneally daily at 5 mg/kg for 5 days, followed by a break for 2 days. After 21 days, both groups of mice were sacrificed, and the tumors were harvested.
Cell culture and other reagents: HT-29 cells were obtained from ATCC and grown in the Roswell Park Memorial Institute (RPMI) medium supplemented with 10% FBS and penicillin and streptomycin. Cells were injected with the growth-factor poor Matrigel (Millipore, catalogue number DLW354263) using a 23-gauge needle for a total volume of 200 microliters. The MC38 cell line was obtained from ATCC and grown in RPMI medium supplemented with 10% FBS and penicillin and streptomycin.
IHC was performed on the paraffin-embedded tumors as described previously^26-28. The manufacturer's protocol was used along with reagents from the Abcam Mouse and Rabbit Specific HRP/DAB IHC Detection Kit—Micro-polymer (ab236466). Primary antibodies and their dilutions used to detect the respective proteins were: Axin2 (Abcam, #ab32197, 1:100), β-catenin (BD Biosciences, #610154, 1:100), LSF (BD Biosciences, #610818, 1:100), SOX9 (Abcam, #ab185230, 1:100), Ki-67 (Cell Signaling, #8D5, 1:100). […]
All images and quantification were performed using the Nikon Eclipse TE2000 Inverted Microscope with the color camera at the Boston University School of Medicine (BUSM) Imaging Core. Random high-power field (hpf) images of every tumor sample were obtained. For quantification the signal was converted to grayscale, and the number and intensity of pixels were analyzed as integrated density by using Fiji. The integrated density of all the images was normalized to its area. The images were processed in ImageJ (National Institutes of Health, Bethesda, Md.) to quantitate the expression of SOX-9, AXIN-2, and LSF. Regions of interest were drawn and the expression was measured using integrated density normalized to the surface area. The average normalized integrated image densities from multiple hpfs were used to perform the correlational analysis between expression levels of pairs of proteins.

[1] = Plasma protein binding (PPB), mouse; type: in vitro ADME
[2] = test system: RhoA/ROCK pathway in FH-B cells; test: Phospho-MLC2 immunoblot (RhoA/ROCK pathway); type: cell-based, human; details: 4 μM FQI1, 10 minutes
Experimental: For analysis of phosphorylated MLC2, FH-B cells were treated as indicated in the figure legend, washed with PBS and incubated for 5 minutes in lysis buffer (50 mM Tris-HCl pH 8.0, 50 mM NaF, 5 mM MgCl2, 150 mM NaCl, 1% Triton X-100) supplemented with Tricine Sample Buffer (Bio-rad, 1610739), protease inhibitor cocktail (1:200), phosphatase inhibitor cocktail (1:100), and 1% ([…]. Lysates were incubated at 100° C. for 15 minutes and centrifuged at 21,000×g for 10 minutes prior to SDS-PAGE.
Gel electrophoresis and immunoblotting: Microtubule sedimentation fractions and MLC2 analysis samples were separated by electrophoresis through tris-glycine and tricine polyacrylamide gels, respectively, which were transferred to PVDF membranes. Membranes with microtubule sedimentation fractions and MLC2 analysis samples were blocked in 5% milk in TBST and in 5% BSA in TBST, respectively. After overnight incubation with primary antibody at 4° C., the membranes were washed and incubated with secondary antibody for 1 hour at room temperature. Primary antibodies included anti-α-tubulin (1:2,000, Thermo Fisher Scientific, PA529444), anti-acetylated tubulin (1:1,000, Sigma-Aldrich, T7451), anti-phospho MYL9 (1:200, Thermo Fisher Scientific, PA517727), and anti-β-actin (1:5,000, Sigma-Aldrich, A1978). […] Band intensities were quantified from scanned films by densitometry using ImageJ.

[3] = xenografts, immunohistochemistry

| SMILES | fold lower concentration than that used for FQI1 in the same assay (RPE cells) [fold] | concentration that effectively inhibits cell migration (RPE cells; 50, 100, 200 nM tested, 2-8 h) [nM] | tumor volumes compared to controls (HT-29 cells; day 9, day 12 and day 17) | histopathological analysis of tumors (H & E) (HT-29 cells; day 21) | tumor volume, treated versus control (HT-29 cells; day 21) [times] | tumor volume (HT-29 cells; day 21, 5 mg/kg intraperitoneally daily for 5 days each week) [mm^3] | AXIN2, CCND1 and SOX9 by quantitative RT-PCR (HT-29 cells; xenograft lysates at end of treatment) | increase in TUNEL-positive cells (HT-29 cells; xenografts) [fold] | CRC cells with nuclear β-catenin, lower than control (HT-29 cells; [3]) [fold] | downregulation of Ki-67 (HT-29 cells; [3]) [fold] | reduction in AXIN2 (integrated density) (HT-29 cells; [3]) [fold] | reduction in SOX9 (integrated density) (HT-29 cells; [3]) [fold] | fraction unbound [1] | phosphorylation of MLC2 [2] | time by which inhibition of migration is detectable (RPE cells; 4 μM FQI1) [h] | migration of cells into the wound (RPE cells; 4 μM FQI1 or 1 μM nocodazole, monitored 12 hours) |
| --- | --- | --- | --- | --- | --- | --- | --- | --- | --- | --- | --- | --- | --- | --- | --- | --- |
| CCOc1cc(N(C)C)ccc1-c1cc(=O)[nH]c2cc3c(cc12)OCO3 [FQI2-34, 8-(4-(dimethylamino)-2-ethoxyphenyl)-[1,3]dioxolo[4,5-g]quinolin-6(5H)-one] | 20 | 200 | significantly lower tumor volumes | lower tumor mass organized in luminal regions interspersed within the interstitium | 2 | 1120±193 | significantly downregulated | 1.8 | 4 | 4.2 | 5 | 3.2 | 0.07 | – | – | – |
| CCOc1ccccc1C1CC(=O)Nc2cc3c(cc21)OCO3 (stereo not shown) [FQI1, 8-(2-ethoxyphenyl)-7,8-dihydro-[1,3]dioxolo[4,5-g]quinolin-6(5H)-one] | – | – | – | – | – | – | – | – | – | – | – | – | – | elevated | ≤ 4 | hindered RPE cells from migrating into the wound |
